This note sets out measurements from patent US20250064941A1, “SIGLEC LIGANDS, CONJUGATES, AND METHODS OF USE THEREOF” (Osprey Biopharmaceuticals, Inc., priority 2023, published 2025).

The structures appear in SMILES notation. Bounds are passed on as bounds.

Assay [1] has as its target T1, human Siglec-2/CD22 protein (Homo sapiens, UniProt P20273).
T1 construct: purchased Acro Biosystems SI2-H82E3
T1 sequence (P20273 20-847): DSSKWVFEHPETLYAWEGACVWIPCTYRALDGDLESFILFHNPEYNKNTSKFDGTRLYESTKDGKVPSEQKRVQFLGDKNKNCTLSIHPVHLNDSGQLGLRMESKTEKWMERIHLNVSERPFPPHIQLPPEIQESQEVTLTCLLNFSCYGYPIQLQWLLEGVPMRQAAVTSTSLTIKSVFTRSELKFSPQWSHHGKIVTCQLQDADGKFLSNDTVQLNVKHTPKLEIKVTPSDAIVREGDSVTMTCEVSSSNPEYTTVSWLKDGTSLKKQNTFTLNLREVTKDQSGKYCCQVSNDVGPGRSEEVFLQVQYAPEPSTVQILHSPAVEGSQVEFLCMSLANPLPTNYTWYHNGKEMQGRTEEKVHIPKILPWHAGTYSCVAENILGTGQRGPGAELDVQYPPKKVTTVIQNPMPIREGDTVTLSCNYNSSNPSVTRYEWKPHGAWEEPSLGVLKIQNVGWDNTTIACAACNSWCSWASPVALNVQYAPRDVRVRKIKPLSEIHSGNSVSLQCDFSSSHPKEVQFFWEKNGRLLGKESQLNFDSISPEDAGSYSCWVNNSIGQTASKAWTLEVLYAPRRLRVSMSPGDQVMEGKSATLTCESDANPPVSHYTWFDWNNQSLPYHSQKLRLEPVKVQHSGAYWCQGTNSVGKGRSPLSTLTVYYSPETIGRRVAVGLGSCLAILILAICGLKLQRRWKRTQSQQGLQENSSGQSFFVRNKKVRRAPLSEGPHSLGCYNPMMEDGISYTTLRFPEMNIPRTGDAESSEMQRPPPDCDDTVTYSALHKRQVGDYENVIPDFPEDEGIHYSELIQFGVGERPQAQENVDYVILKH
In words: SPR binding affinity to human CD22. The note with it: steady-state analysis. A digest of the protocol:
(§1)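 Using a Biacore 8K, compounds were tested against biotinylated CD22 captured after sialidase treatment. The running buffer held 1% DMSO, corrected with a 0.5–2% DMSO series. Affinity was derived by steady-state analysis.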
Background: Surface plasmon resonance follows binding to a sensor surface in real time, without labels.

The target of another assay is cynomolgus Siglec-2/CD22 (Macaca fascicularis, UniProt A0A2K5WCZ6). In words: biochemical. The assay is classed as binding. The settings on record: SPR, steady-state analysis; read-out: Affinity cyno CD22. Put shortly:
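Compound binding measured by steady-state SPR analysis, 120 s dissociation, in HEPES-NaCl-Tween buffer pH 7.5 containing 1% DMSO, DMSO solvent-corrected. Surface: cyno CD22, sialic acids first stripped by SialoExo for 4 h at 37° C., then amine-coupled onto CM5.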

The target of assay [2] is T2, mouse Siglec-2-Fc-Avi (CD22) (Mus musculus, UniProt P35329).
T2 construct: made in house
T2 sequence (P35329 22-708 limits assumed): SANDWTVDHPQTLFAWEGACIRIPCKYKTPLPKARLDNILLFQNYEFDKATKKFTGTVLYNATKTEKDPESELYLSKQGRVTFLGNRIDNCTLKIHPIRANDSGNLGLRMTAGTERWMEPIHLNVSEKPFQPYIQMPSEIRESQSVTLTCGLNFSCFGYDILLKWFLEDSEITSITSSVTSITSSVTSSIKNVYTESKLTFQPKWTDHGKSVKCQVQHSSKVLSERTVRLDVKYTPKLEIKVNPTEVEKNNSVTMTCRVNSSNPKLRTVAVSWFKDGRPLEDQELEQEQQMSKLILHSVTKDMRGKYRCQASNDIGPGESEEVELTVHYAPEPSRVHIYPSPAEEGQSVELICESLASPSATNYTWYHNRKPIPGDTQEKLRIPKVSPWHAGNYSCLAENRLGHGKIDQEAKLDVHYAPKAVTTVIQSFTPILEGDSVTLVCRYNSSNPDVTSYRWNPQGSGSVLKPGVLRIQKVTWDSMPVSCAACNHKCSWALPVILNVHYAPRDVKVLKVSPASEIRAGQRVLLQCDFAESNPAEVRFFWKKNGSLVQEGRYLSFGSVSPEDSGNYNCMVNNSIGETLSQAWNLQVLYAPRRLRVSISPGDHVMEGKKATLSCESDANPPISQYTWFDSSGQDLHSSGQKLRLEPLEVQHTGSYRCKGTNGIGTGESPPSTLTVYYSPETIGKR
In words: SPR binding affinity to mouse CD22. The settings on record: steady-state analysis. A digest of the protocol: as §1

Chain of cynomolgus Siglec-2/CD22 (A0A2K5WCZ6 entry or part of it): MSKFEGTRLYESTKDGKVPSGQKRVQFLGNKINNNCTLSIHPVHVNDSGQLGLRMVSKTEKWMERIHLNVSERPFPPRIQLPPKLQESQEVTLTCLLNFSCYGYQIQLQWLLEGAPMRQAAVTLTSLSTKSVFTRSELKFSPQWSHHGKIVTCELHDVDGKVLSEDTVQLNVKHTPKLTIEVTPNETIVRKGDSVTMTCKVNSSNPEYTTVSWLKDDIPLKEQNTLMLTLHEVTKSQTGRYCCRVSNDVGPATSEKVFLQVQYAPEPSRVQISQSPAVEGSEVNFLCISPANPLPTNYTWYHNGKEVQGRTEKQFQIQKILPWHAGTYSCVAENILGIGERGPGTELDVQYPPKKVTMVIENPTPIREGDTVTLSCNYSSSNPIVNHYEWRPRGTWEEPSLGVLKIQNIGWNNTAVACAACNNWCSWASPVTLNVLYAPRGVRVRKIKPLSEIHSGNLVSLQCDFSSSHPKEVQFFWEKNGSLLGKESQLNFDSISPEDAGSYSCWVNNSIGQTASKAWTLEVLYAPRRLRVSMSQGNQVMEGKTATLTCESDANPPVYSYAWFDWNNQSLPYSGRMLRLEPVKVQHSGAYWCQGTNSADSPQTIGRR

As for `C#CCCOc1ccc(CO[C@]2(C(=O)O)C[C@H](O)[C@@H](NC(N)=O)[C@H]([C@H](O)[C@H](O)CNC(=O)Cc3ccc(Cl)cc3)O2)cc1` [Compound 205, (2R,4S,5R,6R)-2-((4-(but-3-yn-1-yloxy)benzyl)oxy)-6-((1R,2R)-3-(2-(4-chlorophenyl)acetamido)-1,2-dihydroxypropyl)-4-hydroxy-5-ureidotetrahydro-2H-pyran-2-carboxylic acid], the Kd (in assay [1]; at cynomolgus Siglec-2/CD22; in assay [2]) was below 1000 nM throughout.

Take `CCCCCCC[C@]1(C(=O)O)C[C@H](O)[C@@H](NC(=O)CO)[C@H]([C@H](O)[C@H](O)CNC(=O)Cc2ccc(Cl)cc2)O1` [Compound 206, (2R,4S,5R,6R)-6-((1R,2R)-3-(2-(4-chlorophenyl)acetamido)-1,2-dihydroxypropyl)-2-heptyl-4-hydroxy-5-(2-hydroxyacetamido)tetrahydro-2H-pyran-2-carboxylic acid]: the Kd in assay [1] was below 1000 nM; on cynomolgus Siglec-2/CD22 it was below 1000 nM; in assay [2], 1000 to 10000 nM.

`CCCNC(=O)CCCCCCO[C@]1(C(=O)O)C[C@H](O)[C@@H](NC(=O)CO)[C@H]([C@H](O)[C@H](O)CNC(=O)Cc2cccc(O)c2)O1` [Compound 207, (2R,4S,5R,6R)-6-((1R,2R)-1,2-dihydroxy-3-(2-(3-hydroxyphenyl)acetamido)propyl)-4-hydroxy-5-(2-hydroxyacetamido)-2-((7-oxo-7-(propylamino)heptyl)oxy)tetrahydro-2H-pyran-2-carboxylic acid]: the Kd (in assay [1]; at cynomolgus Siglec-2/CD22; in assay [2]) was 1000 to 10000 nM throughout.

Take `C#CCOCCCCCCO[C@]1(C(=O)O)C[C@H](O)[C@@H](NC(=O)Cc2nn[nH]n2)[C@H]([C@H](O)[C@H](O)CNC(=O)Cc2ccc(Cl)cc2)O1` [Compound 208, (2R,4S,5R,6R)-5-(2-(2H-tetrazol-5-yl)acetamido)-6-((1R,2R)-3-(2-(4-chlorophenyl)acetamido)-1,2-dihydroxypropyl)-4-hydroxy-2-((6-(prop-2-yn-1-yloxy)hexyl)oxy)tetrahydro-2H-pyran-2-carboxylic acid]: the Kd in assay [1] was 1000 to 10000 nM; on cynomolgus Siglec-2/CD22, below 1000 nM; in assay [2], above 10000 nM.

In the case of `C#CCOCCCCCCO[C@]1(C(=O)O)C[C@H](O)[C@@H](NC(=O)C(O)CO)[C@H]([C@H](O)[C@H](O)CNC(=O)Cc2ccc(Cl)cc2)O1` (stereo partly drawn) [Compound 210, (2R,4S,5R,6R)-6-((1R,2R)-3-(2-(4-chlorophenyl)acetamido)-1,2-dihydroxypropyl)-5-(2,3-dihydroxypropanamido)-4-hydroxy-2-((6-(prop-2-yn-1-yloxy)hexyl)oxy)tetrahydro-2H-pyran-2-carboxylic acid], the values for the Kd (in assay [1]; at cynomolgus Siglec-2/CD22; in assay [2]) were 1000 to 10000 nM, below 1000 nM and below 1000 nM, respectively.

Turning to `C#CCOCCCCCCO[C@]1(C(=O)O)C[C@H](O)[C@@H](NC(=O)CNC)[C@H]([C@H](O)[C@H](O)CNC(=O)Cc2ccc(Cl)cc2)O1` [Compound 211], the Kd (in assay [1]; on cynomolgus Siglec-2/CD22; in assay [2]) was below 1000 nM throughout.

In the case of `C#CCCCCCCO[C@]1(C(=O)O)C[C@H](O)[C@@H](NC(=O)CO)[C@H]([C@H](O)[C@H](O)CNC(=O)Cc2ccc(C(F)F)cc2)O1` [Compound 212, (2R,4S,5R,6R)-6-((1R,2R)-3-(2-(4-(difluoromethyl)phenyl)acetamido)-1,2-dihydroxypropyl)-4-hydroxy-5-(2-hydroxyacetamido)-2-(oct-7-yn-1-yloxy)tetrahydro-2H-pyran-2-carboxylic acid], the Kd (in assay [1]; at cynomolgus Siglec-2/CD22; in assay [2]) was below 1000 nM in each case.

Regarding `C#CCOCCNC(=O)CCCCCCO[C@]1(C(=O)O)C[C@H](O)[C@@H](NC(=O)CO)[C@H]([C@H](O)[C@H](O)CNC(=O)Cc2ccc(C(F)F)cc2)O1` [Compound 213, (2R,4S,5R,6R)-6-((1R,2R)-3-(2-(4-(difluoromethyl)phenyl)acetamido)-1,2-dihydroxypropyl)-4-hydroxy-5-(2-hydroxyacetamido)-2-((7-oxo-7-((2-(prop-2-yn-1-yloxy)ethyl)amino)heptyl)oxy)tetrahydro-2H-pyran-2-carboxylic acid], the Kd (in assay [1]; on cynomolgus Siglec-2/CD22; in assay [2]) was below 1000 nM in each case.

For `C#CCOCCNc1c(NCCCCCCO[C@]2(C(=O)O)C[C@H](O)[C@@H](NC(=O)CO)[C@H]([C@H](O)[C@H](O)CNC(=O)Cc3ccc(C(F)F)cc3)O2)c(=O)c1=O` [Compound 216, (2R,4S,5R,6R)-6-((1R,2R)-3-(2-(4-(difluoromethyl)phenyl)acetamido)-1,2-dihydroxypropyl)-2-((6-((3,4-dioxo-2-((2-(prop-2-yn-1-yloxy)ethyl)amino)cyclobut-1-en-1-yl)amino)hexyl)oxy)-4-hydroxy-5-(2-hydroxyacetamido)tetrahydro-2H-pyran-2-carboxylic acid], the Kd (in assay [1]; at cynomolgus Siglec-2/CD22; in assay [2]) was below 1000 nM in each case.

In the case of `C#CCCC(=O)NCCCCCCO[C@]1(C(=O)O)C[C@H](O)[C@@H](NC(=O)CO)[C@H]([C@H](O)[C@H](O)CNC(=O)Cc2ccc(Cl)cc2)O1` [Compound 217, (2R,4S,5R,6R)-6-((1R,2R)-3-(2-(4-chlorophenyl)acetamido)-1,2-dihydroxypropyl)-4-hydroxy-5-(2-hydroxyacetamido)-2-((6-(pent-4-ynamido)hexyl)oxy)tetrahydro-2H-pyran-2-carboxylic acid], the Kd in assay [1] is below 1000 nM; at cynomolgus Siglec-2/CD22 it was below 1000 nM; in assay [2] it was 1000 to 10000 nM.

With `C#CCOCCNC(=O)NCCCCCCO[C@]1(C(=O)O)C[C@H](O)[C@@H](NC(=O)CO)[C@H]([C@H](O)[C@H](O)CNC(=O)Cc2ccc(Cl)cc2)O1` [Compound 218, (2R,4S,5R,6R)-6-((1R,2R)-3-(2-(4-chlorophenyl)acetamido)-1,2-dihydroxypropyl)-4-hydroxy-5-(2-hydroxyacetamido)-2-((6-(3-(2-(prop-2-yn-1-yloxy)ethyl)ureido)hexyl)oxy)tetrahydro-2H-pyran-2-carboxylic acid], the Kd (in assay [1]; at cynomolgus Siglec-2/CD22; in assay [2]) was below 1000 nM each time.

Regarding `CC(=O)NCCOCCOCCOCCOCCC(=O)NCCCCCCO[C@]1(C(=O)O)C[C@H](O)[C@@H](NC(=O)CO)[C@H]([C@H](O)[C@H](O)CNC(=O)Cc2ccc(-c3ccccc3)cc2)O1` [Compound 219, (2R,4S,5R,6R)-6-((1R,2R)-3-(2-([1,1′-biphenyl]-4-yl)acetamido)-1,2-dihydroxypropyl)-2-((2,18-dioxo-6,9,12,15-tetraoxa-3,19-diazapentacosan-25-yl)oxy)-4-hydroxy-5-(2-hydroxyacetamido)tetrahydro-2H-pyran-2-carboxylic acid], the Kd (in assay [1]; on cynomolgus Siglec-2/CD22; in assay [2]) was below 1000 nM throughout.
